“Also recorded” adds a separate entry of the source. Where a SMILES comes first, the peptide text is derived from it. Bridges are numbered along the chain shown (N, C = ends). [ ]: non-standard residue; d: D form. Tic = O=C(O)[C@@H]1Cc2ccccc2CN1; Mpa = O=C(O)CCS
What was measured:
[1] = system: osteoclasts; conditions: cited from earlier work
[2] = system: bone resorption; conditions: cited from earlier work
[3] = target: T1, αv β3 receptor (Homo sapiens, UniProt P05106+P06756); assay: αv β3 ELISA (competitive); assay type: binding; conditions: ELISA / JY cell IC50 values of FIG. 2 compared
T1 construct: The αv β3 receptor was purified from octyl-glucopyranoside-extracted human placenta; from tissue
Protocol: Peptide binding to purified αv β3 receptor was determined by using a competitive ELISA, in which αv β3 receptor was immobilized and the binding of solubilized VN, in the presence of various concentrations of peptide analogue, was detected using a monoclonal mouse IgG anti-VN antibody and a labelled anti-mouse IgG conjugate.
50 μl of Vn in the same buffer then was added to each well.
The development process was stopped by adding 50 μl to 4N H2 SO4 to each well. The plates were read at 490 nm and the data analyzed by four parameter fit.

[4] = system: integrin receptors / osteoclasts; assay: series of assays of Examples II and III for potency and selectivity (summary); conditions: for activity of minimal-element peptides (in words): FIG. 2
From the text: Peptides of the RGDNTic (SEQ ID NO: 31) pharmacophore group are characterized, in general, as having increased potency, whereas the peptides of the pharmacophore RGDDV (SEQ ID NO: 1) group generally have higher receptor selectivity. […] As used herein, the term "potency" or "potent" means that a peptide of the invention is active at a relatively low concentration in the assays described in Examples II and III. A potent peptide of the invention can be identified, for example, using the assays described in Examples II and III.
The present invention also provides a series of in vitro and in vivo assays useful for screening a panel of peptides in order to identify peptides that can reduce or inhibit bone resorption or that can alter integrin binding such as αv β3 integrin receptor-mediated binding. Such peptides can include, for example, peptides within the pharmacophore groups exemplified herein or peptides within other pharmacophore groups. The series of assays disclosed herein is particularly useful for determining the selectivity and potency of a peptide for reducing or inhibiting bone resorption. The selectivity of a peptide for an integrin receptor involved in osteoclast binding to bone can be determined, for example, using the integrin receptor assays and cell attachment and detachment assays described herein. Use of cell-based assays in conjunction with receptor-based assays is informative because the receptor ELISAs provide useful information regarding the binding characteristics of a particular peptide toward a particular integrin and because the cell-based assays confirm that those characteristics are relevant to the αv β3 receptor or to bone resorption.

[5] = system: parathyroid hormone-induced hypercalcemia; assay: parathyroid hormone-induced hypercalcemia in mice; assay type: in vivo; conditions: parathyroidectomized mice, 4 hr peptide infusion, FIG. 9
[6] = system: neointimal hyperplasia; conditions: rabbit, in vivo; cited from earlier work
[7] = target: T2, α5 β1 (FnR) (Homo sapiens, UniProt P05556+P08648); assay: α5 β1 ELISA (competitive); assay type: binding; conditions: comparison of ELISA values
T2 construct: Fibronectin receptor (FnR) was purified from 100 mM octyl-glucopyranoside-extracted human placenta; from tissue
Protocol: Peptide binding to purified human αv β5 and αv β3, which are VnR's, and to α5 β1, which is a FnR, was determined using competitive ELISA assays as described below. If desired, an αIIb β3 ELISA can be performed as described in W091/15515.
Peptide binding to purified human α5 β1 (FnR) also was determined using a competitive ELISA. In these assays, Fn was immobilized to the wells and the binding of solubilized FnR in the presence of various concentrations of a peptide analogue was determined using a mouse monoclonal antibody to human β1 (clone P4C10; Gibco) and specific binding was visualized using a second antibody.
Microtiter wells were coated at RT by adding 100 μl of 2 μg/ml human Fn in TBS and incubating the plates overnight at 4° C. Following incubation, the plates were washed 3× with TBS/"TWEEN 20" (polyoxyethylenesorbitan monolaurate). RGD peptides were diluted in TBS containing 20 mM OG and 2 mM MnCl2 and 50 μl was added to wells at 10-fold serial dilutions. FnR was diluted in the same buffer and 50 μl was added to each well.
The plates were incubated for 3 hr at RT and washed with 300 μl TBS/"TWEEN 20" (polyoxyethylenesorbitan monolaurate). Bound receptor was incubated with 100 μl of the monoclonal anti-β1 antibody for 2 hr, then washed 3× with TBS/"TWEEN 20" (polyoxyethylenesorbitan monolaurate). […] The amount of bound second antibody was determined as described above. […]

[8] = system: rat osteoclasts; assay: rat osteoclast attachment assay compared with MG63 / NRK cell attachment; assay type: cell-based; conditions: FIGS. 7 and 8 compared
Protocol: 3. Rat osteoclast attachment assay
To determine the effect of a peptide on the attachment of rat osteoclasts in vitro, 100 μl aliquots of the rat pup bone cell suspension described in Example II.B.2., above, were added in triplicate to 96 well MAXISORP plates coated with specific substrates or with FCS. Substrate coated plates were used to determine the ability of peptides to inhibit attachment or induce detachment of an osteoclast from a ligand such as vitronectin, fibronectin, osteopontin or collagen I (Collaborative Research), which are ligands present in bone. Substrates were added to 96 well plates (50 μl of a 5-10 μg/ml solution in sodium carbonate, pH 9.5) and incubated for 2 hr at 37° C. For FCS control wells, 100 μl 10% FCS was added. Wells were aspirated, then washed 2× with PBS and blocked with 1% bovine serum albumin in PBS for 2 hr at 37° C. Wells were aspirated and washed again 2× with PBS. Cells were seeded in duplicate at 4×10^4 cells/well. […]
Following incubation, the medium and nonadherent cells were removed by aspiration from each well. […] Adherent osteoclasts were counted by light microscopy. […]
MG63 and NRK cell lines were purchased from ATTC (Rockville, Md.). […] Following staining, the stain was extracted with 20% acetic acid and the OD562 of the extracted stain was determined. […]
Selectivity of a peptide can be determined by comparing the results of FIGS. 7 and 8 (see, also FIG. 2).

[9] = system: chick osteoclasts; assay: chick cell detachment assay (osteoclasts vs total cells); assay type: cell-based; conditions: FIG. 5

Molecule: Echistatin
- binding to osteoclasts (literature) [1]: binds to osteoclasts in a nonselective manner
- inhibition of bone resorption in vitro (literature) ([1]; in vitro): inhibits bone resorption in vitro
- inhibition of bone resorption in vivo (literature) [2]: inhibits bone resorption

Molecule: CC(C)[C@@H]1NC(=O)[C@H](CC(=O)O)NC(=O)[C@H](CC(=O)O)NC(=O)CNC(=O)[C@H](CCCNC(=N)N)NC(=O)CNC(=O)C[C@@H](C(N)=O)NC1=O [peptide 368] (GRGDDVD-NH2; lactam N-7)
- receptor selectivity for αv β3 versus αv β5 and α5 β1 (comparison of IC50 values) [3]: receptor selective for αv β3; also recorded: selective peptide
- both potent and selective (summary classification) [4]: both potent and selective
- receptor selectivity (summary classification) [4]: particularly receptor selective

Molecule: CC(C)[C@@H]1NC(=O)[C@H](CC(=O)O)NC(=O)[C@H](CC(=O)O)NC(=O)CNC(=O)[C@H](CCCNC(=N)N)NC(=O)CCSSC[C@@H](C(N)=O)NC1=O [compound 191] ([Mpa]RGDDVC-NH2; disulfide 1-7)
- PTH-induced change in serum ionized calcium [5]: decreased the PTH-induced rise in serum ionized calcium in a dose responsive manner

Molecule: G(Pen)GRGDSPCA
- inhibition of neointimal hyperplasia (literature) [6]: can inhibit neointimal hyperplasia

Molecule: CC(=O)N[C@H]1CSSC[C@@H](C(N)=O)NC(=O)[C@@H]2Cc3ccccc3CN2C(=O)[C@H](CO)NC(=O)[C@H](CC(=O)O)NC(=O)CNC(=O)[C@H](CCCNC(=N)N)NC1=O [compound 812, Ac-CRGDS(Tic)C-NH2] (Ac-CRGDS[Tic]C-NH2; disulfide 1-7)
- activity of minimal-element peptides (in words) [4]: demonstrate activity

Molecule: N=C(N)NCCC[C@@H]1NC(=O)CC[C@@H](C(N)=O)NC(=O)[C@@H]2CCCN2C(=O)[C@H](CO)NC(=O)[C@H](CC(=O)O)NC(=O)CNC1=O [compound 825] (RGDSPE-NH2; lactam N-6)
- receptor selectivity for α5 β1 versus αv β5 [7]: more selective toward α5 β1 than toward αv β5

Molecule: CC(C)[C@@H]1NC(=O)[C@H](CC(=O)O)NC(=O)[C@H](CC(=O)O)NC(=O)CNC(=O)[C@H](CCCNC(=N)N)NC(=O)CC[C@@H](C(N)=O)NC1=O [peptide 386, RGDDVE-NH2] (RGDDVE-NH2; lactam N-6)
- selectivity: osteoclast attachment versus MG63 or NRK attachment [8]: selective
- selective detachment of osteoclasts versus other cell types [9]: caused selective detachment of osteoclasts as compared to other cell types
- activity of minimal-element peptides (in words) [4]: demonstrate activity
- PTH-induced change in serum ionized calcium [5]: relatively low level of serum calcium

Molecule: C[C@@H]1NC(=O)[C@H](CCCNC(=N)N)NC(=O)CNC(=O)CC[C@@H](C(N)=O)NC(=O)[C@@H]2CCCN2C(=O)[C@H](CC(N)=O)NC(=O)[C@H](CC(=O)O)NC(=O)CNC(=O)[C@H](CCCNC(=N)N)NC1=O [compound 390] (GRARGDNPE-NH2; lactam N-9)
- receptor selectivity for α5 β1 versus αv β5 [7]: more selective toward α5 β1 than toward αv β5
